# From publication PMC11887451, “Leveraging Immunogenic Cell Death to Enhance the Immune Response against Malignant Pleural Mesothelioma Tumors” (Journal of the American Chemical Society, 2025)
# “Also recorded” adds a separate entry of the source.
# Assays:
# [1] = test system: M0-differentiated THP-1 cells; assay: MTT-based viability assay on M0-differentiated THP-1 cells, 72 h; format: cell-based, human; conditions: 72-h exposure, compared with AB12 cells
# Method: incubated for an additional 50 min. Subsequently, the medium was aspirated, and the purple formazan crystals formed in viable cells were dissolved in DMSO (100 μL/well). Optical densities were measured at 570 nm using a BioTek Synergy H1 microplate and MultiskanTM SkyHigh plate readers. The quantity of viable cells was expressed in terms of treated/control (T/C) values in comparison to untreated control cells, and 50% inhibitory concentrations (IC 50) were calculated from concentration-effect curves by interpolation. An evaluation was based on means from at least three independent experiments, each comprising three replicat es per […]
# For macrophage analyses, the acute monocytic leukemia -derived THP-1 cell line (ATCC) was used as a model. 1 × 104 THP-1 cells were seeded per well in 96-well plates in RPMI-1640 with 10% FCS and treated for 24 h with 75 nM phorbol 12-myristate 13-acetate (PMA, Sigma-Aldrich) to induce M0 macrophage differentiation. After the differentiation period, PMA was replaced by fresh culture medium to recover for 2h. Afterwards increasing concentrations of 1G, 5A, 5B and 5G were added for a 72-h continuous drug exposure assay. In parallel, the murine mesothelioma cell line AB12 was seeded into 96 -well plates at 2.5 × 10^3 cells/well and were allowed to attach for 24 h. Gold compounds were added to the cells as described for the THP-1 model above. After the incubation period of 72 h, cell viability was determined by an MTT-based assay (EU4U, Biomedica) following the instructions of the manufacturer. DMSO had not impact on the cell viability at the concentrations used. […]
# [2] = test system: AB12 cells; assay: Annexin V/PI assay (necrosis), flow cytometry; format: cell-based, mouse; conditions: AB12, 5 × IC50 (72 h), 100 min
# Method: centrifugation of the cells (300 × g, 5 min), 5 ml of fresh RPMI was introduced, and the cells were seeded at a density of 5 x 10^5 cells per well into Cellstar 6-well plates (Greiner Bio-One) (1 ml per well). J774 macrophages (70-80% confluence in a T75 flask) were detached by scraping, centrifuged (300 × g, 5 min). The medium was substituted with 1 ml of DMEM containing CellTracker Green CMFDA (1 μM) and the J774 macrophages were stained at 37°C for 30 minutes. Following centrifugation of the J774 macrophages (300 × g, 5 min), 5 ml of fresh DMEM was introduced, and the macrophages were seeded into a 100 cm2 petri dish (SPL Life Sciences, Korea). After 24 h, the media in AB12 cells was replaced with 1 ml of fresh RPMI containing compounds of interest at equipotent concentration of 5 × IC50 and incubated for 100 minutes. After removing the drug-containing media, the cells were trypsinized (0.5 ml), neutralized with 1 ml of RPMI, centrifuged (300 × g, 5 min) and counted. From each sample, 2 × 10^5 AB12 cells were seeded into Cellstar 6-well plates (Greiner Bio-One) (1 ml per well).
# 2 × 10^5 J774 macrophages were detached from a petri dish by scraping and added to AB12 cells into 6-well plates. AB12 cells and J774 macrophages were co-incubated for 16 h at 37°C and 5% CO2, detached by scraping, centrifuged (300 × g, 5 min), and the pellets were resuspended in PBS for immediate analysis using a CytoFLEX Flow Cytometer (Beckman Coulter, USA). The percentage of phagocytosis was determined by calculating the number of double-positive macrophages (Q2) over the total number of macrophages (Q2 + Q3). Dot plots […]
# analysis of the flow cytometry data. […]
# concentrations for 100 min at 37 °C. […] Cell death was evaluated by flow cytometry using a CytoFLEX Flow Cytometer equipped with a 488 nm laser and a 638 nm laser (Beckman Coulter, Brea, CA, USA). The cells were excited by the 488 nm laser, and fluorescence emissions were detected at 525/40 nm for FITC (Annexin V) and at 610/20 nm for ECD (PI).
# The percentage of necrosis was determined by calculating the sum of cells in Q1 and Q2. […]
# [3] = test system: panel of seven MPM cell lines; assay: MTT cytotoxicity assay, 72 h, whole panel (summary ranges); format: cell-based; conditions: read-out: cytotoxicity range across the cell line panel
# Excerpt: Human malignant mesothelioma cancer cell lines JU77 and LO68 were obtained from Cell Bank Australia (Children's Medical Research Institute, Westmead, Australia). Mouse malignant mesothelioma cancer cell line AB12, human nonmalignant mesothelioma cancer cell line Met5A (mesothelial cells), mouse macrophage cell line J774 and human monocytic cell line THP-1 were obtained from American Type Culture Collection (ATCC) (Rockville, MD, USA). Human malignant mesothelioma cell lines VMC23 (epithelial), Meso82 (sarcomatous), Meso92 (biphasic), were kindly provided by Prof. Walter Berger (Medical University of Vienna). All cells except for J774 were cultured in RPMI and J774 cells were cultured in DMEM. Both types of media were supplemented with 10% FBS and 1% penicillin-streptomycin (10,000 U/mL). Cells were grown in tissue culture flasks (75 cm2 and 25 cm2, SPL Life Sciences Co., Ltd., Korea). All cell lines were grown at 37 °C in a humidified atmosphere of 95% air and 5% CO 2 and passaged when they reached 80–90% confluency. All Au stock solutions were prepared in 1% DMSO in the respected medium, ensuring that cell viability was not inhibited. […]
# The cytotoxicity of compounds was determined using an MTT colorimetric test. […]
# incubated for an additional 50 min. […] Optical densities were measured at 570 nm using a BioTek Synergy H1 microplate and MultiskanTM SkyHigh plate readers. […]
# [4] = test system: AB12 cells in BALB/c mice; assay: In vivo vaccination model; parameters: species or system mouse; conditions: n = 8
# [5] = test system: HMGB1 in AB12 cells; assay: HMGB1 detection, flow cytometry; format: cell-based, mouse; conditions: AB12, 5 × IC50 (72 h), 240 min
# Method: AB12 cells were seeded into Cellstar 6-well plates (Greiner Bio-One) at a density of 5 × 10^5 cells per well (2 ml per well). The cells were allowed to resume exponential growth for 16 h. […] After the treatment, the supernatant was collected in 2 mL microtubes. The wells were washed with 1 ml of PBS, trypsinized with 300 μL of trypsin at 37 °C for 5 min and combined with the corresponding supernatant. The cell suspension was then centrifuged (300  g, 10 min), washed with PBS (2  1 ml). […] RT, washed once with 1 mL PBS and centrifuged (500  g, 10 min). Next, cells were incubated with HMGB1 antibody (Catalogue number: 3935, Cell Signaling Technology) at 4 °C overnight (1:500 dilution in PBS) and washed with 1 ml of PBS (500  g, 10 min). […] The cells were excited by the 488 nm laser, and fluorescence S24 page 25: emission was detected at 525/40 nm for FITC (CRT). The resulting dot blots were acquired from 10,000 events and quantified using Flowjo software (version 10.8.0, BD Biosciences, San Jose, CA, USA).
Structure (SMILES),sensitivity of THP-1-derived macrophages [1],necrosis level (Q1 + Q2) [2],IC50 [3] [nM],mice that developed tumors by Day 51 [4],HMGB1 expression (in words) [5]
F[P-](F)(F)(F)(F)F.c1cc[c]2c(c1)Nc1cccc[n+]1[Au-]21[S]C(=[N+]2CCCCCC2)[S]1 (centres unmarked) [5G],highly sensitive; also recorded: increased sensitivity in comparison to the malignant mesothelioma cells,6%–8%,–,–,–
"Nc1nc2[nH]cc(CCc3ccc(C(=O)N[C@@H](CCC(=O)O)C(=O)O)cc3)c2c(=O)[nH]1 [Pemetrexed, pemetrexed, reference compound]",–,–,23 to 300,four of the eight,significant increase in HMGB1 expression
